# Experiments:
# [1] = tested on: C57Bl/6J mice; assay: In vivo liver uptake of [3H]-labelled mouse HDL and LDL; conditions: intravenous 10 nmole/kg
# Experimental: FIG. 16A-J: Increase of bile secretion following activation of P2Y13r pathway in mice. C57Bl/6J mice (n=10) were fasted for 2 h and then intravenously injected with Cangrelor® or Compound IIa (10 nmoles/kg). Four hours later the gallbladders were removed and analyzed for: Bile acids content (FIG. 16A); Bile cholesterol content (FIG. 16B). C57Bl/6J mice (n=10) were fasted for 2 h followed by single oral dose of P2Y13r agonist Compound IIa at 3, 30 or 300 μg/kg. Six hours later bile acids contents (FIG. 16C); bile cholesterol content (FIG. 16D), and bile acid content of liver (FIG. 16E) were evaluated using HPLC and enzymatic kits for gallbladers. Plasma samples were collected at time 0 and after 6 h of treatment, then analyzed for: total cholesterol (▴), unesterified cholesterol (●), esterified cholesterol (▪) and HDL cholesterol (▾) determined using either enzymatic kits or Lipoprint® for HDL cholesterol (FIG. 16F). […] Radioactivity present in the liver was determined 2 hours later for the HDL or 5 hours later for the LDL. Cholesterol content of feces from treated animals (100 μg/kg) was determined by Charge aerosol detection (FIG. 16J). *p<0.05, **p<0.01. […]
# [2] = tested on: HepG2 cells; assay: In vitro HDL internalization in human hepatocytes (HepG2) cells; format: cell-based; conditions: compound 1 μM; 3H-labeled HDL 75 μg/ml, 10 min at 37° C.
# Experimental: FIG. 3: Single-dose effect of the selected molecules on HDL internalization by HepG2 cells. Cells were incubated for 10 min at 37° C. with 75 μg/ml ^3H cholesterol Cholesteryl Oleate [Cholesteryl-1,2-^3H(N)] HDL, Reference Compound (100 nM) and illustrative compounds of the invention (1 μM). Data are expressed as the percentage of internalized radioactivity with respect to the control value (set as […]). *p<0.005, **p<0.0001.
# The effect of illustrative compounds of the invention on HDL internalization was measured by an in vitro assay on HepG2 cells (FIG. 3). ^3H cholesterol Cholesteryl Oleate [Cholesteryl-1,2-^3H(N)] labeled HDL] (available from PerkinElmer http://www.perkinelmer.com/Catalog/Product/ID/NET746L001MC) was loaded on HepG2 cells in presence of illustrative compounds of the invention (final concentration 1 μM). […] It was determined that Compounds XIa, IIc, IIa and Ih (R-isomer) have a strong impact on HDL uptake by HepG2 cells; Compounds IIb, VIIa and VIIIa have a modest impact on HDL uptake by HepG2 cells.
# ^3H cholesterol Cholesteryl Oleate [Cholesteryl-1,2-^3H(N)] (Perkin Elmer) solution (250 μL) was dried and resuspended in acetone (250 μL). The solution was mixed with Lipoprotein delipidated serum (20 mL at 40 mg/mL) and DTNB (0.4 μM final concentration). HDL (7 mg) was added and incubated overnight at 4° C. on gentle rotation. The HDL was purified on KBr gradient as previously described.
# Hepatocytes were plated at 300,000 cells/well in 6×-well plates. Two days later, the cells were washed once with DMEM and incubated for 1 hour in DMEM at 37° C. 75 μg of radio-labeled HDL (6500 dpm/μg) were added to the medium and incubated for 10 minutes at 37° C. The cells were washed once with DMEM (2 mL) and incubated for 1.5 hours in DMEM at 4° C., whereupon dissociation occurred. Then the cells were washed once more with cold DMEM (2 mL) and the incorporated cholesterol ether was retrieved from HepG2 cells by the addition of hexane:isopropanol (3:2) solution (1 mL).
smiles,measurement,setting,value
"CN(C)c1ncc(CN2CCC(c3cc(O)nc(N4CCOCC4)n3)CC2)cn1 [Compound IIa, 6-[1-(2-Dimethylaminopyrimidin-5-ylmethyl)-piperidin-4-yl]-2-morpholin-4-yl-pyrimidin-4-ol]",liver uptake of labelled HDL as compared to LDL,[1],specific stimulation
same,impact on HDL uptake by HepG2 cells,[2],strong impact

# From US10220040B2, “Compounds, compositions and methods useful for cholesterol mobilization” (Cerenis Therapeutics Holding SA, priority 2010, dated 2019)
